The source made the active and inactive calls.
Assays:
[1] = molecular target: T1, Replicative DNA helicase DnaB (Mycobacterium tuberculosis, UniProt P9WMR3); test: DnaB intein splicing inhibitors, dose response, biochemical, cell-free fluorescence (AID 449749); type: functional
T1 sequence (P9WMR3 whole entry): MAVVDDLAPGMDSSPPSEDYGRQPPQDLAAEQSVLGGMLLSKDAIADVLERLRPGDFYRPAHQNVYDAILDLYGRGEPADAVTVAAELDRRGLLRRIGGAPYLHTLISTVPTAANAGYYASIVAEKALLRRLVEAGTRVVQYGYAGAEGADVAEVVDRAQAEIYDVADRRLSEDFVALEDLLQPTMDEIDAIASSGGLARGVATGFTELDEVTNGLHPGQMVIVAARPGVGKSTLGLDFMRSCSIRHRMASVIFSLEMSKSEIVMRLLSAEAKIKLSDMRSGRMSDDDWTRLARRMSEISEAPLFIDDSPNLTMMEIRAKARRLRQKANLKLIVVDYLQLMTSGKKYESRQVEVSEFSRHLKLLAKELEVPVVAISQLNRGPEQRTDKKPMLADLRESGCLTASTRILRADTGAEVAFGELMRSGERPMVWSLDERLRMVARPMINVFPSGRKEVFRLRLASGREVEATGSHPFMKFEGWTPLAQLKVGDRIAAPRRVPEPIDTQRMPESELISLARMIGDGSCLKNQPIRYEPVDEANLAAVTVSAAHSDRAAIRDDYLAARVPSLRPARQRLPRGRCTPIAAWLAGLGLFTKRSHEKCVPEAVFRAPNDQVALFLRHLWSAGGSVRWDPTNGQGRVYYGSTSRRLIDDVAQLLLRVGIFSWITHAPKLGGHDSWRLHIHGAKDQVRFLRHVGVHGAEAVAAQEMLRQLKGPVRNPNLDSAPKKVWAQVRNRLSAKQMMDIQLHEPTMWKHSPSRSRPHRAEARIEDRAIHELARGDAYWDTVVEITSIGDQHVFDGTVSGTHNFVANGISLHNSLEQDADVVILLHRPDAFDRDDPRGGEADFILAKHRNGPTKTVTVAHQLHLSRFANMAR

Protein RecA = molecular target: T2, Protein RecA (Mycobacterium tuberculosis, UniProt P9WHJ3); test: Fluorescence Cell-Free Homogeneous Dose Retest to Identify Inhibitors of RecA-Intein Splicing Activity. [Related pubchem assays (depositor defined):AID2097, AID2223, AID489010, AID492950]; type: functional
T2 sequence (P9WHJ3 whole entry): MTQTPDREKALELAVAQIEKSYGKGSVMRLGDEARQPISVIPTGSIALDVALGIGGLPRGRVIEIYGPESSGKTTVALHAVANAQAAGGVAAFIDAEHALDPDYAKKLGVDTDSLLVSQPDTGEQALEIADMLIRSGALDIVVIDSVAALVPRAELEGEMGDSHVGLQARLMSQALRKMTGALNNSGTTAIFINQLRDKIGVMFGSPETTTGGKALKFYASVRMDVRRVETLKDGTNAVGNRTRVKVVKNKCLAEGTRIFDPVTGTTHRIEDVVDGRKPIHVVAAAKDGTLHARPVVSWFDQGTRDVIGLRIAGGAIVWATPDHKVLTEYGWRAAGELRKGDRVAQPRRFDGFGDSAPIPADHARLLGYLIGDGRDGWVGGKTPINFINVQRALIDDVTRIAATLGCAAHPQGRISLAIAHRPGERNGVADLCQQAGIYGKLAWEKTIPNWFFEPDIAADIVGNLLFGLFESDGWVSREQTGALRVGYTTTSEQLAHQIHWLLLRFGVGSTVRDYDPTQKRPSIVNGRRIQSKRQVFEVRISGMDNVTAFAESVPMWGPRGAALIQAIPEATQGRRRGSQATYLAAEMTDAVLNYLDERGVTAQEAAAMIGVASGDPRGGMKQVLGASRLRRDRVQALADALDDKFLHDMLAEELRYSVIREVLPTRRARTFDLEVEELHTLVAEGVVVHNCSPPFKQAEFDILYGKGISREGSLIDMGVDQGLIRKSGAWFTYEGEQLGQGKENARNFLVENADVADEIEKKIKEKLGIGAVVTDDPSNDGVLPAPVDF

Cytochrome P450 2D6 = Cytochrome P450 2D6 (Homo sapiens, UniProt P10635);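 further: CYP2D6 member of a cytochrome P450 panel assay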
Sequence of Cytochrome P450 2D6 (P10635 whole entry): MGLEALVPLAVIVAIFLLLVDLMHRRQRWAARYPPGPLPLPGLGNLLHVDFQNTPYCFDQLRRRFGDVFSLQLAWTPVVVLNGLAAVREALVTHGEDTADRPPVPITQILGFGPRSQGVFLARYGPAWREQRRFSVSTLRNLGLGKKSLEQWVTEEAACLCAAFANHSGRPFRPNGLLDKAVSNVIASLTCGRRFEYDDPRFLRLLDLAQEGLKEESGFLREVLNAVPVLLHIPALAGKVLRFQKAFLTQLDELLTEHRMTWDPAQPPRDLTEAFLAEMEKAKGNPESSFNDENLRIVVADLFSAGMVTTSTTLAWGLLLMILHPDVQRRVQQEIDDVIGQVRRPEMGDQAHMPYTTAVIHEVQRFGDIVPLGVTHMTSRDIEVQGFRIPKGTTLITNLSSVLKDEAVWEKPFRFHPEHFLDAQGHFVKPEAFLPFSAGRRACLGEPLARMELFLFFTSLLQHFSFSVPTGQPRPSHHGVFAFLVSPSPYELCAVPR

Protein skinhead-1 = molecular target: T3, Protein skinhead-1 (Caenorhabditis elegans, UniProt P34707); type: functional
T3 sequence (P34707 whole entry): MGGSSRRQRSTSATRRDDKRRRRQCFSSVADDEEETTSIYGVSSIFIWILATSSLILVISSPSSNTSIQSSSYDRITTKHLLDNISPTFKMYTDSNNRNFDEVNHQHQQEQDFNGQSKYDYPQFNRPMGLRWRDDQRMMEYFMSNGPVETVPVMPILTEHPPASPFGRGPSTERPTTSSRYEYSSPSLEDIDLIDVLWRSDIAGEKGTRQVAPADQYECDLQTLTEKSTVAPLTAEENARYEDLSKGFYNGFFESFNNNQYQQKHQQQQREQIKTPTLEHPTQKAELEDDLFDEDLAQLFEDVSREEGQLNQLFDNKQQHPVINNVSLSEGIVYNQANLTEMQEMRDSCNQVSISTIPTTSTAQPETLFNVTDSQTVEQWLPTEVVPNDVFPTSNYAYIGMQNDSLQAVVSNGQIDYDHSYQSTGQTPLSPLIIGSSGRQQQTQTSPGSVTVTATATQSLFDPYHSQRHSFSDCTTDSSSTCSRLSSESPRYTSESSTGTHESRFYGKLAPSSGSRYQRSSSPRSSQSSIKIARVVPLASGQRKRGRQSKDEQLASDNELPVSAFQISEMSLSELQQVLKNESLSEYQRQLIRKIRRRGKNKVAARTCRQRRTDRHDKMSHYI

[2] = tested on: Streptococcus sp. 'group A'; test: Streptococcus pyogenes SK(-)GAS viability under kanamycin – luminescence, BacTiterGlo, confirmation, counter-screen for streptokinase expression inhibitor project, dose response (AID 1900); type: functional, organism-based
Streptokinase A = molecular target: T4, Streptokinase A (Streptococcus pyogenes serotype M1, UniProt P10520); test: viability-normalized secreted streptokinase activity reduction – plasminogen activation absorbance, OD405, dose response (AID 1914); type: functional, Streptococcus pyogenes M1 GAS;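 further: secreted streptokinase activity via plasminogen activation per viability signal from cell pellet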
T4 sequence (P10520 whole entry): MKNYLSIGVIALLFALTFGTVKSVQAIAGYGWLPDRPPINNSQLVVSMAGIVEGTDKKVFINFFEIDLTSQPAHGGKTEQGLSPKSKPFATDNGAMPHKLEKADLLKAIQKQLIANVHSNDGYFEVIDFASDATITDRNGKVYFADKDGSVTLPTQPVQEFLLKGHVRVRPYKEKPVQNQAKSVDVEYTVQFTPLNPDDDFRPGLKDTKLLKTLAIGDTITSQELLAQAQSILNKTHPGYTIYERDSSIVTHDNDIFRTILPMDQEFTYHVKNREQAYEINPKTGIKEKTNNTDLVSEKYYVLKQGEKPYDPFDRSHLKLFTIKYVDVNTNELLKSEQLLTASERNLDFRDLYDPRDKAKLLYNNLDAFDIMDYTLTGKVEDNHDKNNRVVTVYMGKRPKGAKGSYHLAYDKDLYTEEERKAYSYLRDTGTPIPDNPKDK

Streptococcus = test: GAS UMAA2166 growth inhibition – luminescence, BacTiterGlo, counter-screen for streptokinase expression inhibitor project, dose response (AID 1915); type: functional, organism-based;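 further: potency for reduction of bacterial viability or growth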
[3] = Luminescence Cell-Based Dose Retest to Confirm Inhibitors of Cancer Stem Cells. [Related pubchem assays (depositor defined):AID2717, AID2721]; type: functional; details: Homo sapiens
INS1 = test: INS-1E survival protection against cytokine death – cell-based, luminescence, retest, dose response (AID 449756); type: functional; details: Rattus norvegicus;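 further: cell death triggered by IL-1 beta plus TNF-alpha plus IFN-gamma mixture; protective hits raise ATP signal compared with cytokine alone wells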
[4] = Trypanosoma cruzi growth suppression in host cells – NIH3T3 host cells, beta-gal luminescence, confirmation (AID 2044); type: functional, cell-based;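 further: intracellular parasites grown in NIH/3T3 mouse fibroblasts as host cells; luminescent beta-galactosidase reporter signal from transgenic T. cruzi replicating inside host cells; inhibitors lower the luminescence signal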
[5] = NIH3T3 cell viability loss – ATP luminescence, mouse fibroblasts, counter-screen, dose response (AID 2010); type: functional, cell-based;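 further: cells exposed to compound for about 90 hours before reading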
Cytochrome P450 2C19 = Cytochrome P450 2C19 (Homo sapiens, UniProt P33261); test: Cytochrome panel assay with activity outcomes. Panel member name: p450-cyp2c19 Compounds with AC50 equal or less than 10 uM are considered active; type: functional
Sequence of Cytochrome P450 2C19 (P33261 whole entry): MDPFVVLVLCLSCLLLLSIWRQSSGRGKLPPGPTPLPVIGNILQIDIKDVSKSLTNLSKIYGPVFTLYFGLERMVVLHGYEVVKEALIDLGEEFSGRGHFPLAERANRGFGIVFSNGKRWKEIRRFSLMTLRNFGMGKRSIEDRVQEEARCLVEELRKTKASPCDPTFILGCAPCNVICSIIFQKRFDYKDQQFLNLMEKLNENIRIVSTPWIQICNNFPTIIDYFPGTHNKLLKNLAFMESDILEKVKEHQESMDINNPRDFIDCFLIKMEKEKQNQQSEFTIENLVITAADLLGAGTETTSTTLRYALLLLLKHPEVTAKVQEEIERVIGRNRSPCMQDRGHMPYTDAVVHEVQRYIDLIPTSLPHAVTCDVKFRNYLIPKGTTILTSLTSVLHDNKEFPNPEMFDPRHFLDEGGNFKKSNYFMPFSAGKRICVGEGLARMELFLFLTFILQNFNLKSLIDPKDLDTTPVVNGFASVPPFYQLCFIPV

Cn1c2c(c(=O)n(C)c1=O)[C@@]1(C(=O)Nc3ccccc31)C(C#N)=C(N)O2
AC50 [1]: 34.1 µM (inconclusive) | EC50 (Protein RecA): 17.5 µM (active)

CCOc1ccc2nc(O)c(CN(CCc3ccccc3)C(=O)N3CCCC3)cc2c1
AC50 (Cytochrome P450 2D6): 22.4 µM (inconclusive)

c1csc(-c2nc(-c3ccncc3)no2)c1
IC50 (Protein skinhead-1): 22.2 µM (active)

N#CC1=C(N)Oc2[nH]nc(-c3ccccc3)c2C1c1ccncc1 (stereo not drawn)
AC50 [1]: 12.3 µM (active) | EC50 (Protein RecA): 3.12 µM (active)

O=C(Nc1ccc(Br)c(C(F)(F)F)c1)c1ccc(C(F)(F)F)cc1
EC50 [2]: 1.74 µM (active) | EC50 (Streptokinase A): > 150 µM (not active) | EC50 (Streptococcus): 3.98 µM (active) | AC50 [3]: 2.06 µM (active) | AC50 (INS1): 8.01 µM (active)

CCOC(=O)c1cccc(C2=CC(=O)C[C@H](c3ccc(Cl)cc3)C2)c1
AC50 [3]: 0.885 µM (active)

CC(C)C1COC(c2cccc3ccccc23)=N1 (stereo not drawn)
IC50 (Protein skinhead-1): 25 µM (active)

c1ccc2oc(SCc3nc4ccccc4s3)nc2c1
IC50 (Protein skinhead-1): 37.5 µM (active)

CCCC1(C(=O)OCC)NC(c2ccc(N(C)C)cc2)C2C(=O)N(c3ccccc3)C(=O)C21 (stereo not drawn)
IC50 (Protein skinhead-1): > 100 µM (inactive)

CC1CCN(S(=O)(=O)c2ccc(C(=O)N3CCOCC3)cc2)CC1
IC50 (Protein skinhead-1): > 100 µM (inactive)

CCN(C(=O)COC(=O)c1cc(-c2cccc3ccccc23)nc2ccccc12)C1CCS(=O)(=O)C1 (stereo not drawn)
IC50 (Protein skinhead-1): > 100 µM (inactive)

O=C(CN=C(S)N(Cc1ccccc1)Cc1ccccc1F)NCCc1ccc(Cl)cc1
EC50 [4]: 1.92 µM (active) | EC50 [5]: > 60 µM (not active) | AC50 [3]: 5.59 µM (active)

Cc1cc(Nc2ccccc2)c2c([N+](=O)[O-])ccc(C)c2n1
EC50 [4]: 1.41 µM (active) | EC50 [5]: > 30 µM (not active) | AC50 [1]: > 380 µM (inactive) | EC50 (Protein RecA): 0.551 µM (active)

Brc1ccc(-c2nnc(-c3ccccc3Br)o2)cc1
IC50 (Protein skinhead-1): > 100 µM (inactive)

Cc1ccc(N2CCN(S(=O)(=O)c3ccc4oc(=O)ccc4c3)CC2)c(C)c1
IC50 (Protein skinhead-1): > 100 µM (inactive)

O=C(Nc1ccc(Cl)c(Cl)c1)Nc1ccon1
EC50 [2]: 44.4 µM (active) | EC50 (Streptokinase A): > 150 µM (not active) | EC50 (Streptococcus): 38.7 µM (active) | IC50 (Protein skinhead-1): > 100 µM (inactive)

CCNc1ncc2nc(-c3ccccc3)c(=O)n(C3CC3)c2n1
AC50 (Cytochrome P450 2D6): 1.26 µM (inconclusive)

NC(=S)Nc1ccc(Oc2ccc(NC(N)=S)cc2)cc1
AC50 (Cytochrome P450 2C19; read-out: AC50): 25.1 µM (inconclusive) | AC50 (Cytochrome P450 2D6): 14.1 µM (inconclusive)

COc1ccc(C(C)C)cc1S(=O)(=O)n1cnc(C)c1
IC50 (Protein skinhead-1): > 100 µM (inactive)

O=C(Nc1nc(-c2ccc(Cl)s2)cs1)c1ccccc1
IC50 (Protein skinhead-1): 68.3 µM (inactive)

C[C@@]12CC[C@H]3[C@H](CC=C4C[C@@H](O)CC[C@@]43C)[C@@H]1CC[C@@H]2N(CCO)CCO
AC50 (Cytochrome P450 2C19): inconclusive | AC50 (Cytochrome P450 2D6): 3.98 µM (inconclusive)

O=C(CCl)c1ccc(Cc2ncc(C(F)(F)F)cc2Cl)s1
EC50 [2]: 4.31 µM (active) | EC50 (Streptokinase A): 3.38 µM (active) | EC50 (Streptococcus): 6.13 µM (active) | AC50 [1]: 3.57 µM (active) | EC50 (Protein RecA): 1.69 µM (active)

CNc1nc(-c2ccoc2)nc2ccccc12
AC50 (Cytochrome P450 2D6): 39.8 µM (inconclusive)

CSc1cccc(NC(=O)C2C3C=CC4(O3)C2C(=O)N(CCN2CCOCC2)C4C(=O)NC2CCCCC2)c1 (stereo not drawn)
IC50 (Protein skinhead-1): > 100 µM (inactive)

C=CCN1C(=O)NC(c2ccc(OC)cc2)(C(F)(F)F)S/C1=C(\C#N)c1nnc(N2CCOCC2)n1-c1ccccc1 (stereo not drawn)
AC50 [1]: 6.76 µM (active) | EC50 (Protein RecA): 9.73 µM (active)

COc1ccc(-c2nn(-c3ccccc3)cc2C(=O)N(C)CC(=O)Nc2cccc(F)c2)cc1
AC50 [3]: 12.9 µM (active)

CCC(C)c1ccc(NC(=O)C2CC3CCC2C3)cc1 (stereo not drawn)
AC50 [3]: 4.53 µM (active)

CC(C(=O)O)N1C(=O)CSc2ncccc21 (stereo not drawn)
AC50 [3]: > 195 µM (inactive)

CC(C)(C)[C@@H]1CCC(=O)N(CC[C@H](Sc2ccc(Br)cc2)c2ccccc2)CC1
AC50 [3]: 3.18 µM (active)

CN(C(=O)C1Cc2c(-c3ccccc3Oc3ccccc3)ccnc2O1)c1ccccc1 (stereo not drawn)
IC50 (Protein skinhead-1): > 100 µM (inactive)

O=C(NC(c1ccc(-c2ccccc2)cc1)c1cnccn1)C1CCN(CCOc2ccc(Cl)cc2Cl)CC1 (stereo not drawn)
IC50 (Protein skinhead-1): > 100 µM (inactive)

C/C(=N\NC(N)=S)c1cc(-c2ccccc2)c(-c2ccccc2)s1
AC50 [3]: 3.27 µM (active)
